Laboratory results as given in the supplement of paper PMC10307832.

Experiments:
Assay in all cases: relative viability (nuclei count vs DMSO), 5 days (fraction); higher = more cells survive
[1] = compound: Cc1ccccc1C(C(=O)NC1CCCCC1)N(C(=O)Cn1ccnc1C)c1cccc(F)c1 [IDH-C35] + COc1cc2c(Oc3ccc(NC(=O)C4(C(=O)Nc5ccc(F)cc5)CC4)cc3F)ccnc2cc1OCCCN1CCOCC1 [Foretinib] (partner 0.25 µM)
In short: (§1)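 Relative viability is defined as nuclei in treated wells over nuclei in vehicle wells. Duplicate plates were run and medians reported. Lung cancer cell lines in 1536-well plates were dosed by pin tool one day after seeding, with one drug or with a fixed anchor-drug dose plus five library-drug doses (not always all listed) in √10 steps, and nuclei were counted after 5 days.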

[2] = compound: Cc1ccccc1C(C(=O)NC1CCCCC1)N(C(=O)Cn1ccnc1C)c1cccc(F)c1 [IDH-C35] + CC(=O)Nc1cccc(-n2c(=O)n(C3CC3)c(=O)c3c(Nc4ccc(I)cc4F)n(C)c(=O)c(C)c32)c1 [Trametinib] (partner 0.02 µM)
In short: as §1

[3] = compound: CC1=C(C(=NN1)C)CC2=C(C3=C(S2)N(C(=O)N(C3=O)C)CC(C)C)C(=O)N4C[C@@H](CO4)O + CC(C)C[C@H](NC(=O)[C@H](Cc1ccccc1)NC(=O)c1cnccn1)B(O)O [Bortezomib] (partner 0.002 µM)
In short: as §1

[4] = compound: CC1=C(C(=NN1)C)CC2=C(C3=C(S2)N(C(=O)N(C3=O)C)CC(C)C)C(=O)N4C[C@@H](CO4)O + Cc1nc(Nc2ncc(C(=O)Nc3c(C)cccc3Cl)s2)cc(N2CCN(CCO)CC2)n1 [Dasatinib] (partner 0.075 µM)
In short: as §1

Cell Line | relative viability ([1]; first compound 0.08 µM) | relative viability ([1]; first compound 0.253 µM) | relative viability ([1]; first compound 0.8 µM) | relative viability ([1]; first compound 2.53 µM) | relative viability ([1]; first compound 8 µM) | relative viability ([2]; first compound 0.08 µM) | relative viability ([2]; first compound 0.253 µM) | relative viability ([2]; first compound 0.8 µM) | relative viability ([2]; first compound 2.53 µM) | relative viability ([2]; first compound 8 µM) | relative viability ([3]; first compound 0.0025 µM) | relative viability ([3]; first compound 0.007906 µM) | relative viability ([3]; first compound 0.025 µM) | relative viability ([3]; first compound 0.07906 µM) | relative viability ([3]; first compound 0.25 µM) | relative viability ([4]; first compound 0.0025 µM) | relative viability ([4]; first compound 0.007906 µM) | relative viability ([4]; first compound 0.025 µM) | relative viability ([4]; first compound 0.07906 µM) | relative viability ([4]; first compound 0.25 µM)
NCI-H1975 | 0.938 | 0.951 | 1.01 | 0.974 | 0.862 | 0.384 | 0.363 | 0.323 | 0.345 | 0.32 | 0.423 | 0.338 | 0.42 | 0.409 | 0.342 | 0.41 | 0.36 | 0.394 | 0.343 | 0.39
CAL-12T | 1.13 | 1.22 | 1.1 | 1.01 | 1.13 | 0.389 | 0.434 | 0.371 | 0.36 | 0.354 | 1.07 | 0.978 | – | 0.891 | 0.926 | 0.49 | 0.475 | 0.465 | 0.317 | 0.343
NCI-H1623 | 0.91 | 0.854 | 0.811 | 0.896 | 0.861 | – | – | – | – | – | – | – | – | – | – | 0.505 | 0.513 | 0.549 | 0.442 | 0.453
HCC-44 | – | – | – | – | – | 1.01 | 1.04 | 1.09 | 1.14 | 1.04 | 0.901 | 0.904 | 0.9 | 0.893 | 0.797 | – | – | – | – | –
EKVX | 0.832 | 1.02 | 0.75 | 0.703 | 0.614 | 0.398 | 0.279 | 0.37 | 0.353 | 0.277 | 1.02 | 1.33 | 1.07 | 0.992 | 1.03 | 0.61 | 0.53 | 0.544 | 0.302 | 0.303
NCI-H1651 | 0.858 | 0.809 | 0.732 | 0.822 | 0.79 | 0.856 | 0.899 | 0.838 | 0.858 | 0.832 | 0.956 | 1.02 | 0.889 | 0.879 | 0.856 | 0.445 | 0.372 | 0.352 | 0.348 | 0.345
NCI-H1944 | 0.91 | 0.934 | 0.888 | 0.827 | 0.798 | 0.392 | 0.421 | 0.42 | 0.332 | 0.393 | – | – | – | – | – | 0.238 | 0.253 | 0.235 | 0.234 | 0.221
NCI-H1703 | 0.321 | 0.335 | 0.334 | 0.367 | 0.348 | – | – | – | – | – | 0.265 | 0.223 | 0.221 | 0.3 | 0.256 | – | – | – | – | –
Calu-6 | 0.884 | 0.899 | 0.908 | 0.919 | 0.868 | – | – | – | – | – | 1.05 | 1.05 | 0.904 | 1.12 | 1.09 | – | – | – | – | –
EBC-1 | 0.0931 | 0.109 | 0.0986 | 0.108 | 0.109 | – | – | – | – | – | 0.602 | 0.553 | 0.588 | 0.639 | 0.648 | – | – | – | – | –
SW 1573 | 1.18 | 0.873 | 0.915 | 0.933 | 0.928 | 0.491 | 0.793 | 0.531 | 0.571 | 0.518 | 1.09 | 1.13 | 1.1 | 1.07 | 0.893 | 0.451 | 0.681 | 0.402 | 0.501 | 0.597
A-427 | 1.01 | 1 | 0.967 | 0.903 | 0.944 | 0.791 | 0.784 | 0.77 | 0.722 | 0.705 | 0.945 | 1 | 1.03 | 0.975 | 0.944 | 0.746 | 0.84 | 0.727 | 0.733 | 0.764
NCI-H2347 | 1.19 | 0.992 | 0.799 | 0.955 | 1.01 | 0.342 | 0.281 | 0.323 | 0.28 | 0.283 | 1.09 | 1.15 | 0.684 | 0.718 | 0.852 | 0.394 | 0.323 | 0.299 | 0.234 | 0.257
NCI-H1355 | 1.04 | 1.02 | 0.935 | 0.982 | 1 | 0.453 | 0.424 | 0.398 | 0.392 | 0.423 | 1.2 | 1.28 | 1.24 | 1.15 | 1.23 | 0.759 | 0.701 | 0.783 | 0.689 | 0.685
NCI-H358 | 0.757 | 0.738 | 0.685 | 0.769 | 0.603 | 0.132 | 0.152 | 0.128 | 0.159 | 0.144 | – | – | – | – | – | 0.18 | 0.198 | 0.166 | 0.162 | 0.15
PC-3 [JPC-3] | 1 | 1.01 | 1.05 | 1.11 | 0.982 | 0.65 | 0.745 | 0.725 | 0.758 | 0.67 | 0.949 | 0.869 | 0.886 | 0.79 | 0.786 | 1.06 | 0.939 | 0.94 | 0.908 | 0.975
NCI-H2228 | 0.939 | 0.814 | 0.973 | 0.853 | 0.667 | 0.456 | 0.559 | 0.458 | 0.836 | 0.546 | 0.996 | 1.09 | 1.11 | 0.97 | 1.47 | 0.507 | 0.644 | 0.453 | 0.521 | 0.602
HOP-62 | 1.11 | 1.01 | 0.999 | 1.09 | 1.13 | 0.395 | 0.353 | 0.424 | 0.33 | 0.384 | 0.535 | 1.03 | 0.753 | 0.557 | 1.07 | 0.672 | 0.852 | 0.74 | 0.466 | 0.559
HARA | 0.876 | 0.906 | 0.885 | – | 1.01 | 0.562 | 0.649 | 0.601 | 0.56 | 0.76 | 1.21 | 1.15 | 1 | 0.979 | 1.1 | 0.243 | 0.263 | 0.28 | 0.231 | 0.235
